Test results: the supplement of paper PMC4862054

Experiments:
Conditions in all cases: incubation time: 72 h
[1] = tested on: BT-549; assay: normalised viability (% of control), CellTiter-Blue; higher = more viable cells (about 100 = DMSO control)
Procedure, shortened: (§1)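 Breast cancer cell lines in 20 µl suspension were seeded onto 384-well plates pre-loaded with compound dissolved in 5 µl medium, then incubated 72 h. CellTiter-Blue reagent (2.5 µl) was added for 2 h at 37 °C and fluorescence read at 560/590 nm. Each plate was normalised to vehicle (100) and a positive kill control (0), with Z'-factor quality control. The value is normalised viability at one listed concentration of the series.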

[2] = tested on: CAL-120; assay: as above
Procedure, shortened: as §1

[3] = tested on: CAL-85-1; assay: as above
Procedure, shortened: as §1

[4] = tested on: HDQ-P1; assay: as above
Procedure, shortened: as §1

[5] = tested on: Hs578T; assay: as above
Procedure, shortened: as §1

[6] = tested on: MDA-MB-436; assay: as above
Procedure, shortened: as §1

[7] = tested on: BT-474; assay: drug sensitivity score (DSS), CellTiter-Glo (DSS (AUC-based score)); higher = stronger drug effect (viability inhibition or cytotoxicity); extreme values may be limits of the assay
Procedure, shortened: (§2)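 Each compound occupied 5 concentrations in 10-fold steps over its own 10,000-fold range in 384-well plates, into which breast cancer cell lines were seeded as 20 µl suspension. Following 72 h of incubation, CellTox Green fluorescence (485/520 nm) was measured, and CellTiter-Glo luminescence was measured after 10 min at room temperature. Plates were individually normalised to 0.1 % DMSO and a positive kill control. From the area under the fitted dose-response curve, a drug sensitivity score was calculated.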

[8] = tested on: BT-549; assay: as above
Procedure, shortened: as §2

[9] = tested on: CAL-120; assay: as above
Procedure, shortened: as §2

[10] = tested on: CAL-148; assay: as above
Procedure, shortened: as §2

[11] = tested on: CAL-51; assay: as above
Procedure, shortened: as §2

[12] = tested on: CAL-85-1; assay: as above
Procedure, shortened: as §2

[13] = tested on: DU-4475; assay: as above
Procedure, shortened: as §2

[14] = tested on: HCC1143; assay: as above
Procedure, shortened: as §2

[15] = tested on: HCC1599; assay: as above
Procedure, shortened: as §2

[16] = tested on: HCC1937; assay: as above
Procedure, shortened: as §2

[17] = tested on: HDQ-P1; assay: as above
Procedure, shortened: as §2

[18] = tested on: Hs578T; assay: as above
Procedure, shortened: as §2

[19] = tested on: MCF-10A; assay: as above
Procedure, shortened: as §2

[20] = tested on: MDA-MB-231; assay: as above
Procedure, shortened: as §2

[21] = tested on: MDA-MB-436; assay: as above
Procedure, shortened: as §2

[22] = tested on: MDA-MB-453; assay: as above
Procedure, shortened: as §2

[23] = tested on: MDA-MB-468; assay: as above
Procedure, shortened: as §2

[24] = tested on: MFM-223; assay: as above
Procedure, shortened: as §2

[25] = tested on: SK-BR-3; assay: as above
Procedure, shortened: as §2

CC1(C)CCC(c2ccc(Cl)cc2)=C(CN2CCN(c3ccc(C(=O)NS(=O)(=O)c4ccc(N[C@H](CCN5CCOCC5)CSc5ccccc5)c(S(=O)(=O)C(F)(F)F)c4)cc3)CC2)C1 [Navitoclax]
normalised viability ([1]; 10 nM): 80.7% | normalised viability ([1]; 1000 nM): 79.7% | normalised viability ([1]; 10000 nM): 78.1% | normalised viability ([2]; 10 nM): 69.9% | normalised viability ([2]; 1000 nM): 64.7% | normalised viability ([2]; 10000 nM): 30.5% | normalised viability ([3]; 3 nM): 84.1% | normalised viability ([3]; 30 nM): 81.1% | normalised viability ([3]; 100 nM): 85.3% | normalised viability ([4]; 3 nM): 81.4% | normalised viability ([4]; 30 nM): 79.7% | normalised viability ([4]; 100 nM): 79.3% | normalised viability ([5]; 10 nM): 91.8% | normalised viability ([5]; 1000 nM): 92.2% | normalised viability ([5]; 10000 nM): 88.8% | normalised viability ([6]; 10 nM): 76.2% | normalised viability ([6]; 1000 nM): 98.7% | normalised viability ([6]; 10000 nM): 71.7% | drug sensitivity score [7]: 9.19 | drug sensitivity score [8]: 0.252 | drug sensitivity score [9]: 7.04 | drug sensitivity score [10]: 2 | drug sensitivity score [11]: 2.18 | drug sensitivity score [12]: 0.831 | drug sensitivity score [13]: 1.89 | drug sensitivity score [14]: 0 | drug sensitivity score [15]: 0 | drug sensitivity score [16]: 3.57 | drug sensitivity score [17]: 4.94 | drug sensitivity score [18]: 0 | drug sensitivity score [19]: 0 | drug sensitivity score [20]: 11.1 | drug sensitivity score [21]: 0 | drug sensitivity score [22]: 3.71 | drug sensitivity score [23]: 4.81 | drug sensitivity score [24]: 2.94 | drug sensitivity score [25]: 0

CN(Cc1cnc2nc(N)nc(N)c2n1)c1ccc(C(=O)N[C@@H](CCC(=O)O)C(=O)O)cc1 [Methotrexate]
normalised viability ([1]; 10 nM): 91.4% | normalised viability ([1]; 1000 nM): 78.6% | normalised viability ([1]; 10000 nM): 95.7% | normalised viability ([2]; 10 nM): 85.2% | normalised viability ([2]; 1000 nM): 46.9% | normalised viability ([2]; 10000 nM): 55% | normalised viability ([3]; 3 nM): 98.5% | normalised viability ([3]; 30 nM): 84% | normalised viability ([3]; 100 nM): 78% | normalised viability ([4]; 3 nM): 108% | normalised viability ([4]; 30 nM): 95.5% | normalised viability ([4]; 100 nM): 96% | normalised viability ([5]; 10 nM): 106% | normalised viability ([5]; 1000 nM): 86.5% | normalised viability ([5]; 10000 nM): 79.4% | normalised viability ([6]; 10 nM): 111% | normalised viability ([6]; 1000 nM): 64.4% | normalised viability ([6]; 10000 nM): 93.6% | drug sensitivity score [7]: 7.54 | drug sensitivity score [8]: 0 | drug sensitivity score [9]: 17.3 | drug sensitivity score [10]: 0 | drug sensitivity score [11]: 16.2 | drug sensitivity score [12]: 9.24 | drug sensitivity score [13]: 0 | drug sensitivity score [14]: 0 | drug sensitivity score [15]: 1.47 | drug sensitivity score [16]: 30.2 | drug sensitivity score [17]: 23.1 | drug sensitivity score [18]: 2.72 | drug sensitivity score [19]: 0 | drug sensitivity score [20]: 7.21 | drug sensitivity score [21]: 3.7 | drug sensitivity score [22]: 0 | drug sensitivity score [23]: 0 | drug sensitivity score [24]: 0 | drug sensitivity score [25]: 0
